Experiments:
Assay type in all cases: in vivo, BALB/c nude mice
[1] = Example 8 pharmacokinetics assay for efficacy study (plasma, liver); conditions: mouse, po, 10 mg/kg, p.o.
Procedure: For efficacy study, agents were tested in the A375 human melanoma xenografts model. Compound 8, Compound 26, and Compound 38 were administered to BALB/c nude mice bearing A375 xenografts from day 0 and dosed p.o. twice per day (BID). Compound 8 and Compound 26 were dosed at 10 mg/kg for 21 days. Compound 38 was dosed at 10 mg/kg for 10 days. The known BRAF inhibitor encorafenib was used as a positive control. encorafenib was administered from day 1 and dosed p.o. daily (QD) for 21 days and dosed at 35 mg/kg.
(§1) The plasma samples were collected at predetermined time points for PK analysis. For non-termination plasma collection, blood samples were collected into the 1.5 mL Eppendorf tubes containing 3 μL of 0.5 M EDTA-K2. For termination plasma collection, the mice were euthanized at predetermined time points post the treatment and the blood samples were collected into the 1.5 mL Eppendorf tubes containing 15 μL of 0.5 M EDTA-K2. And then the anticoagulant blood samples were centrifuged at 2,500 g at 4° C. for 15 minutes. The plasma samples were separated into 2 aliquots. The 1st was used for PK analysis, and the 2nd served as backup. The samples were stored at −80° C. before bioanalysis.
(§2) Liver samples were collected at predetermined time points for PK analysis. The left lobe of the liver was dissected out and split into 2 parts. The 1st part was used for PK analysis and the 2nd part served as the backup for the study. The samples were transferred into pre-labeled tubes and quickly froze in liquid nitrogen within 2 minutes after dissection. The samples were stored at −80° C. before bioanalysis.
The harvested plasma and liver samples were processed for pharmacokinetics analysis by LC-MS/MS with a concentration range of 2.0~2000 ng/mL for encorafenib in plasma and liver homogenate, 10.0-10,000 ng/mL for Compound 8 and Compound 38 in plasma and liver homogenate, 20.0~20,000 ng/mL for Compound 26 in plasma and liver homogenate.

[2] = Example 6 pharmacokinetics assay for efficacy study (plasma, liver); conditions: 10 mg/kg, p.o., BID × 21 days; for concentration at 6 h: mouse, po
Procedure: For efficacy study, compounds were tested in the A375 human melanoma xenografts. Known BRAF inhibitors encorafenib, and dabrafenib were used as positive controls. Encorafenib and dabrafenib were administered to BALB/c nude mice bearing A375 tumors on PG-D1 and dosed PO daily (QD) for 3 weeks. Encorafenib was dosed at 35 mg/kg. Dabrafenib was dosed at 100 mg/kg. Compound 83, Compound 93, Compound 70, and Compound 54 were administered to BALB/c nude mice bearing A375 tumors on PG-DO and dosed PO twice per day (BID) for 3 weeks. Compound 83, Compound 93, Compound 70, and Compound 54 were dosed at 10 mg/kg.
as §1, with “The” for “For non-termination plasma collection, blood samples were collected into the 1.5 mL Eppendorf tubes containing 3 μL of 0.5 M EDTA-K2. For termination plasma collection, the”, “treatment. The” for “treatment and the”
as §2
For efficacy study, the harvested plasma and liver were processed for pharmacokinetics analysis by LC/MS/MS with a concentration range of 2.00-2000 ng/mL for Encorafenib and Dabrafenib in plasma, 0.20-200 ng/mL for Encorafenib and Dabrafenib in liver, 50.0-50000 ng/mL for compound 83 and compound 70 in plasma, 20.0-20000 ng/mL for Compound 93 and Compound 54 in plasma, 5.00-5000 ng/mL for compound 93, compound 83, compound 70 and compound 54 in liver.

[3] = Example 7 pharmacokinetics assay for efficacy study (plasma, liver); conditions: mouse, po, 10 mg/kg, p.o.
Procedure: For efficacy study, agents were tested in the A375 human melanoma xenografts. Compound 118, Compound 156, and Compound 180 were administered to BALB/c nude mice bearing A375 xenografts from day 0 and dosed p.o. twice per day (BID). Compound 141 was administered from day 0 and dosed p.o. twice per day (BID) or dosed p.o. daily (QD) from day 1. Compound 141, Compound 118, Compound 156, and Compound 180 were dosed at 10 mg/kg for 14 days. The known BRAF inhibitor Dabrafenib was used as a positive control. Dabrafenib was administered from day 1 and dosed p.o. daily (QD) for 14 days and dosed at 100 mg/kg.
as §1, with “The” for “For non-termination plasma collection, blood samples were collected into the 1.5 mL Eppendorf tubes containing 3 μL of 0.5 M EDTA-K2. For termination plasma collection, the”, “treatment. The” for “treatment and the”
as §2
The harvested plasma and liver samples were processed for pharmacokinetics analysis by LC-MS/MS with a concentration range of 0.500~500 ng/mL for Dabrafenib in plasma and liver homogenate, 20.0~20,000 ng/mL for Compound 141, Compound 180 and Compound 118 in plasma and liver, 10.0~10,000 ng/mL for Compound 156 in plasma and liver.

[4] = liver, BID × 21 days, read-out: Concentration in Liver (mean ± SEM)
[5] = plasma, BID × 21 days, read-out: Concentration in Plasma (mean ± SEM)
[6] = liver, read-out: Concentration in Liver (mean ± SEM)
[7] = plasma, read-out: Concentration in Plasma (mean ± SEM)
[8] = liver, BID × 14 days, read-out: Concentration in Liver (mean ± SEM)
[9] = plasma, BID × 14 days, read-out: Concentration in Plasma (mean ± SEM)

Work on `CCN(C)S(=O)(=O)Nc1ccc(F)c(Oc2ccc3ncn(C4CC5(CCN(C6CCC(c7cc8c(cc7F)c(N7CCC(=O)NC7=O)nn8C)CC6)CC5)C4)c(=O)c3c2)c1C#N` (single isomer, unassigned) [Compound 8, 6-[2-cyano-3-[[ethyl(methyl)sulfamoyl]amino]-6-fluoro-phenoxy]-3-[7-[4-[3-(2,4-dioxohexahydropyrimidin-1-yl)-5-fluoro-1-methyl-indazol-6-yl]cyclohexyl]-7-azaspiro[3.5]nonan-2-yl]-4-oxo-quinazoline] yielded a concentration at 6 h [1, 4] of 738 ± 299 ng/g and a concentration at 6 h [1, 5] of 984 ± 364 ng/mL.
`CCN(C)S(=O)(=O)Nc1ccc(F)c(Oc2ccc3ncn([C@H]4COC5(CCC(N6CCC(c7cc8c(cc7F)c(N7CCC(=O)NC7=O)nn8C)C(F)(F)C6)CC5)C4)c(=O)c3c2)c1C#N` (single isomer, unassigned) [Compound 38] gave a concentration at 6 h ([1]; liver, BID × 10 days, read-out: Concentration in Liver (mean ± SEM)) of 17200 ± 2570 ng/g and a concentration at 6 h ([1]; plasma, BID × 10 days, read-out: Concentration in Plasma (mean ± SEM)) of 18300 ± 2240 ng/mL.
In the case of `CCN(C)S(=O)(=O)Nc1ccc(F)c(Oc2ccc3ncc([C@@H]4COC5(CCN(C6CCC(c7cc8c(cc7F)c(N7CCC(=O)NC7=O)nn8C)CC6)CC5)C4)nc3c2)c1C#N` (single isomer, unassigned) [Compound 54], the concentration at 6 h [2, 6] is reported as 4240 ± 955 ng/g and the concentration at 6 h [2, 7] is reported as 3990 ± 634 ng/mL.
With `CCN(C)S(=O)(=O)Nc1ccc(F)c(Oc2ccc3ncn([C@H]4COC5(CCN(C6CC(c7cc8c(cc7F)c(N7CCC(=O)NC7=O)nn8C)C6)CC5)C4)c(=O)c3c2)c1C#N` (single isomer, unassigned) [Compound 70] the “Concentration in Liver (mean ± SEM)” value ([2]; 6 h) was 6392 ± 570 ng/g and the “Concentration in Plasma (mean ± SEM)” value ([2]; 6 h) was 16083 ± 1345 ng/mL.
Work on `CCN(C)S(=O)(=O)Nc1ccc(F)c(Oc2ccc3ncn(C4CC5(CCN(C6CCC(c7cc8c(cc7F)c(N7CCC(=O)NC7=O)nn8C)CC6F)CC5)C4)c(=O)c3c2)c1C#N` (single isomer, unassigned) [Compound 83, 6-[2-cyano-3-[[ethyl(methyl)sulfamoyl]amino]-6-fluoro-phenoxy]-3-[7-[4-[3-(2,4-dioxohexahydropyrimidin-1-yl)-5-fluoro-1-methyl-indazol-6-yl]-2-fluoro-cyclohexyl]-7-azaspiro[3.5]nonan-2-yl]-4-oxo-quinazoline] yielded a concentration at 6 h [2, 6] of 11000 ± 1050 ng/g and a concentration at 6 h [2, 7] of 17100 ± 1510 ng/mL.
For `Cn1nc(N2CCC(=O)NC2=O)c2cc(F)c(C3CCC(N4CCC5(CC4)CC(n4cnc6ccc(Oc7c(F)ccc(NS(=O)(=O)C8CCCC8)c7C#N)cc6c4=O)C5)CC3)cc21` (single isomer, unassigned) [Compound 93, N-[2-cyano-3-[3-[7-[4-[3-(2,4-dioxohexahydropyrimidin-1-yl)-5-fluoro-1-methyl-indazol-6-yl]cyclohexyl]-7-azaspiro[3.5]nonan-2-yl]-4-oxo-quinazolin-6-yl]oxy-4-fluoro-phenyl]cyclopentanesulfonamide], the concentration at 6 h [2, 6] was 652 ± 180 ng/g and the concentration at 6 h [2, 7] was 1100 ± 389 ng/mL.
In the case of `CCN(C)S(=O)(=O)Nc1ccc(F)c(Oc2ccc3ncc(OCC4CCN(C5CCC(c6cc7c(cc6F)c(N6CCC(=O)NC6=O)nn7C)CC5)CC4)nc3c2)c1C#N` (single isomer, unassigned) [Compound 118, 7-[2-cyano-3-[[ethyl(methyl)sulfamoyl]amino]-6-fluoro-phenoxy]-2-[[1-[4-[3-(2,4-dioxohexahydropyrimidin-1-yl)-5-fluoro-1-methyl-indazol-6-yl]cyclohexyl]-4-piperidyl]methoxy]quinoxaline], the concentration at 6 h [3, 8] is reported as 102000 ± 1600 ng/g and the concentration at 6 h [3, 9] is reported as 4160 ± 503 ng/mL.
`CCN(C)S(=O)(=O)Nc1ccc(F)c(Oc2ccc3ncc(C4CC5(CCN(C6CCC(c7cc8c(cc7F)c(N7CCC(=O)NC7=O)nn8C)CC6)CC5)C4)nc3c2)c1C#N` (single isomer, unassigned) [Compound 180, 7-[2-cyano-3-[[ethyl(methyl)sulfamoyl]amino]-6-fluoro-phenoxy]-2-[7-[4-[3-(2,4-dioxohexahydropyrimidin-1-yl)-5-fluoro-1-methyl-indazol-6-yl]cyclohexyl]-7-azaspiro[3.5]nonan-2-yl]quinoxaline] showed a concentration at 6 h [3, 8] of 2400 ± 425 ng/g and a concentration at 6 h [3, 9] of 1920 ± 363 ng/mL.
In the case of `CCN(C)S(=O)(=O)Nc1ccc(F)c(Oc2ccc3ncn([C@H]4COC5(CCN(C6CC7(C6)CN(c6cc8c(cc6F)c(N6CCC(=O)NC6=O)nn8C)C7)CC5)C4)c(=O)c3c2)c1C#N` [Compound 26, (3R)-3-[6-[2-cyano-3-[[ethyl(methyl)sulfamoyl]amino]-6-fluoro-phenoxy]-4-oxo-quinazolin-3-yl]-8-[2-[3-(2,4-dioxohexahydropyrimidin-1-yl)-5-fluoro-1-methyl-indazol-6-yl]-2-azaspiro[3.3]heptan-6-yl]-1-oxa-8-azaspiro[4.5]decane], the concentration at 6 h [1, 4] is reported as 4720 ± 367 ng/g and the concentration at 6 h [1, 5] is reported as 16000 ± 2060 ng/mL.
In the case of `CCN(C)S(=O)(=O)Nc1ccc(F)c(Oc2ccc3ncn(C4CC5(CCN(C6CC7(C6)CN(c6cc8c(cc6F)c(N6CCC(=O)NC6=O)nn8C)C7)CC5)C4)c(=O)c3c2)c1C#N` (stereo not drawn) [Compound 141, 6-[2-cyano-3-[[ethyl(methyl)sulfamoyl]amino]-6-fluoro-phenoxy]-3-[7-[2-[3-(2,4-dioxohexahydropyrimidin-1-yl)-5-fluoro-1-methyl-indazol-6-yl]-2-azaspiro[3.3]heptan-6-yl]-7-azaspiro[3.5]nonan-2-yl]-4-oxo-quinazoline], the concentration at 6 h [3, 8] is reported as 6570 ± 341 ng/g, the concentration at 6 h ([3]; liver, QD × 14 days, read-out: Concentration in Liver (mean ± SEM)) is reported as 7500 ± 286 ng/g and the concentration at 6 h [3, 9] is reported as 8750 ± 907 ng/mL. For the same molecule, the concentration at 6 h ([3]; plasma, QD × 14 days, read-out: Concentration in Plasma (mean ± SEM)) was 11000 ± 474 ng/mL.
`CCN(C)S(=O)(=O)Nc1ccc(F)c(Oc2ccc3ncn(C4CC5(CCN(C6CCN(c7cc8c(cc7F)c(N7CCC(=O)NC7=O)nn8C)CC6)CC5)C4)c(=O)c3c2)c1C#N` [Compound 156, 6-[2-cyano-3-[[ethyl(methyl)sulfamoyl]amino]-6-fluoro-phenoxy]-3-[7-[1-[3-(2,4-dioxohexahydropyrimidin-1-yl)-5-fluoro-1-methyl-indazol-6-yl]-4-piperidyl]-7-azaspiro[3.5]nonan-2-yl]-4-oxo-quinazoline] gave a concentration at 6 h [3, 8] of 1840 ± 305 ng/g and a concentration at 6 h [3, 9] of 1870 ± 359 ng/mL.
